Data on 11 molecules can be found in patent US10323027B2, “2,3-dihydro-4H-1,3-benzoxazin-4-one derivatives as modulators of cholinergic muscarinic M1 receptor” (Takeda Pharmaceutical Company Limited, priority 2015, dated 2019).

This test addresses T1, human M1 receptor (hCHRM1) (Homo sapiens, UniProt P11229).
T1 construct: expressed in transfected cells
T1 sequence (P11229 1-460): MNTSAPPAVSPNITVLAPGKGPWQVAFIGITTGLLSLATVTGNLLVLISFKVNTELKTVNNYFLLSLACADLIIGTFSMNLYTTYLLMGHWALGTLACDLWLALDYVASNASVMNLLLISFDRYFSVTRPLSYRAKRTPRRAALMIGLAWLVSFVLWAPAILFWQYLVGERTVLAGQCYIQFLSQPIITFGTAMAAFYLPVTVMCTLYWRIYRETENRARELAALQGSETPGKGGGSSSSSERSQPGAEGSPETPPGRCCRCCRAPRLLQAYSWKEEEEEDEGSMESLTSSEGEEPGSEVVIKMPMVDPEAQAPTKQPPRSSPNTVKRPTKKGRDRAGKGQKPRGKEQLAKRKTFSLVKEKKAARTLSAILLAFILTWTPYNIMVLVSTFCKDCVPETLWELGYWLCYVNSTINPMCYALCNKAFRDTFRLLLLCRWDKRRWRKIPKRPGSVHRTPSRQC
Kind of test: Measurement of M1 receptor positive allosteric modulator (M1PAM) activity, Ca2+ fluorescence by FLIPRtetra (Experimental Example 1). Conditions: for activity (%) at 10 μM: 10 μM test compound, 100% = acetylcholine 1 μM, 0% = DMSO; for pEC50: inflection point of concentration-dependent curve, in presence of acetylcholine at EC20 (0.8-1.0 nM), CHO-K1 cells expressing hCHRM1, read-out: IP value. It is filed as cell-based. In a few lines:
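CHO-K1 cells stably expressing hCHRM1, loaded with Fluo-4 AM (probenecid), received compound with acetylcholine at EC20 (final 0.8-1.0 nM); Ca2+ fluorescence read 1 min by FLIPRtetra. Activity scaled 0% (DMSO) to 100% (1 μM acetylcholine); IP from inflection point of concentration curve.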

pEC50: −log10 of the molar value.

Turning to `COc1ccc(Cc2cc3c(cc2C)OCN([C@H]2COCC[C@@H]2O)C3=O)cc1` (relative stereo) [Example 86, 1,5-anhydro-2,4-dideoxy-2-(6-(4-methoxybenzyl)-7-methyl-4-oxo-2H-1,3-benzoxazin-3(4H)-yl)-threo-pentitol], the “activity (%) at 10 μM” value turned out to be 99% and the pEC50 was 7.00.
Take `Cc1c(Cc2ccc(Cl)nc2)cc2c(c1C)OCN([C@H]1CCC[C@@H]1O)C2=O` [Example 8, 6-((6-chloropyridin-3-yl)methyl)-3-((1S,2S)-2-hydroxycyclopentyl)-7,8-dimethyl-2,3-dihydro-4H-1,3-benzoxazin-4-one]: the “activity (%) at 10 μM” value is recorded as 105% and the pEC50 is 8.02.
Turning to `Cc1ccc(Cc2cc3c(cc2C)OCN([C@H]2CCCC[C@@H]2O)C3=O)cn1` (relative stereo) [Example 33, 3-(trans-2-hydroxycyclohexyl)-7-methyl-6-((6-methylpyridin-3-yl)methyl)-2,3-dihydro-4H-1,3-benzoxazin-4-one], the “activity (%) at 10 μM” value was 104% and the pEC50 was 7.41.
For the molecule `Cc1c(Cc2ccc(-c3ccn(C)n3)nc2)cc2c(c1F)OCN([C@H]1CCC[C@@H]1O)C2=O` [Example 22, 8-fluoro-3-((1S,2S)-2-hydroxycyclopentyl)-7-methyl-6-((6-(1-methyl-1H-pyrazol-3-yl)pyridin-3-yl)methyl)-2,3-dihydro-4H-1,3-benzoxazin-4-one], the “activity (%) at 10 μM” value was 105% and the pEC50 was 9.16.
Turning to `Cc1cc2c(cc1Cc1ccc(-c3cn(C)nn3)nc1)C(=O)N(CC1CCCO1)CO2` (stereo not shown) [Example 71, 7-methyl-6-((6-(1-methyl-1H-1,2,3-triazol-4-yl)pyridin-3-yl)methyl)-3-(tetrahydrofuran-2-ylmethyl)-2,3-dihydro-4H-1,3-benzoxazin-4-one], the “activity (%) at 10 μM” value amounted to 105% and the pEC50 was 7.28.
With `Cc1ccc(Cc2cc3c(c(F)c2Cl)OCN([C@H]2CCC[C@@H]2O)C3=O)cn1` [Example 81, 7-chloro-8-fluoro-3-((1S,2S)-2-hydroxycyclopentyl)-6-((6-methylpyridin-3-yl)methyl)-2,3-dihydro-4H-1,3-benzoxazin-4-one], the “activity (%) at 10 μM” value is 110% and the pEC50 is 7.07.
Taken in the same sequence, the figures for `O=C1c2cc(CN3CCOCC3)c3ccccc3c2OCN1[C@H]1CCC[C@@H]1O` [Example 77, 3-((1S,2S)-2-hydroxycyclopentyl)-6-(morpholin-4-ylmethyl)-2,3-dihydro-4H-naphtho[2,1-e][1,3]oxazin-4-one] were 104% and 7.20.
As to `Cc1c(Cc2ccc(-c3cnn(C)c3)nc2)cc2c(c1Cl)OCN(CC1CCCO1)C2=O` (stereo not shown) [Example 45, 8-chloro-7-methyl-6-((6-(1-methyl-1H-pyrazol-4-yl)pyridin-3-yl)methyl)-3-(tetrahydrofuran-2-ylmethyl)-2,3-dihydro-4H-1,3-benzoxazin-4-one], the “activity (%) at 10 μM” value turned out to be 92% and the pEC50 was 8.32.
Taken in the same sequence, the figures for `Cc1ccc(Cc2cc3c(c4ccccc24)OCN([C@H]2CCC[C@@H]2O)C3=O)cn1` [Example 40, 3-((1S,2S)-2-hydroxycyclopentyl)-6-((6-methylpyridin-3-yl)methyl)-2,3-dihydro-4H-naphtho[2,1-e][1,3]oxazin-4-one] were 98% and 8.80.
Taken in the same sequence, the figures for `Cc1ccc(Cc2cc3c(c(F)c2C)OCN([C@H]2COCC[C@@H]2O)C3=O)cn1` [Example 32, 1,5-anhydro-2,4-dideoxy-2-(8-fluoro-7-methyl-6-((6-methylpyridin-3-yl)methyl)-4-oxo-2H-1,3-benzoxazin-3(4H)-yl)-L-threo-pentitol] were 108% and 7.43.
Taken in the same sequence, the figures for `C=Cc1ccc(Cc2cc3c(c4ccccc24)OCN([C@H]2COCC[C@@H]2O)C3=O)cn1` [Example 42, 1,5-anhydro-2,4-dideoxy-2-(4-oxo-6-((6-vinylpyridin-3-yl)methyl)-2H-naphtho[2,1-e][1,3]oxazin-3(4H)-yl)-L-threo-pentitol] were 124% and 8.70.
